Active and inactive are the calls of the source. No cut-off for these calls is given here.
How the values were obtained:
Rattus norvegicus [1] = species on record: Rattus norvegicus; test: Inhibition of rat sodium channel site 2 at 10 uM relative to control
[2] = biological target: C-C chemokine receptor type 2 (Homo sapiens, UniProt P41597); test: Displacement of [125I]-labeled human MCP1 from CCR2 in human PBMC
[3] = biological target: Voltage-gated inwardly rectifying potassium channel KCNH2 (Homo sapiens, UniProt Q12809); test: Inhibition of human ERG by FLIPR assay
Rattus norvegicus [4] = test: Oral bioavailability in rat at 43 mg/kg; type: ADME, organism-based; conditions: in vivo
[5] = Clearance in rat at 4 mg/kg, iv; type: ADME, organism-based; parameters: dose 4 mg/kg, route intravenous; conditions: in vivo
[6] = Permeability across apical to basolateral side in human Caco2 cells; type: ADME, cell-based; conditions: Caco-2, read-out: permeability
Mus musculus [7] = test: Oral bioavailability in mouse at 100 mg/kg; type: ADME, organism-based; conditions: in vivo
Mus musculus [8] = test: Antiinflammatory activity in thioglycollate-induced human CCR2 knock-in mouse peritonitis model assessed as reduction of Ly6C+F4/80+ cell numbers in peripheral blood at 100 mg/kg, po administered 1 hr prior to thioglycollate challenge measured after 6 hrs; type: functional, organism-based; parameters: dose 100 mg/kg
Mus musculus [9] = test: Antiinflammatory activity in thioglycollate-induced human CCR2 knock-in mouse peritonitis model assessed as reduction of Ly6C+F4/80+ cell number peritoneal cavity at 100 mg/kg, po administered 1 hr prior to thioglycollate challenge measured after 6 hrs; type: functional, organism-based; parameters: dose 100 mg/kg
Canis familiaris [10] = test: Oral bioavailability in dog at 10 mg/kg; type: ADME, organism-based, Canis lupus familiaris; conditions: in vivo
Liver microsome = conditions: human, microsomes, 10 min
Description: Metabolic stability in human liver microsomes assessed as compound remaining after 10 mins

Cynomolgus monkey [11] = test: Oral bioavailability in cynomolgus monkey at 10 mg/kg; type: ADME, organism-based, Macaca fascicularis; conditions: in vivo
[12] = Clearance in dog at 1 mg/kg, iv; type: ADME, organism-based, Canis lupus familiaris; parameters: dose 1 mg/kg, route intravenous; conditions: in vivo
[13] = Clearance in cynomolgus monkey at 1 mg/kg, iv; type: ADME, organism-based, Macaca fascicularis; parameters: dose 1 mg/kg, route intravenous; conditions: in vivo
[14] = Clearance in mouse at 5 mg/kg, iv; type: ADME, organism-based; parameters: dose 5 mg/kg, route intravenous; conditions: in vivo
Mus musculus [15] = species on record: Mus musculus; test: Antiinflammatory activity in thioglycollate-induced wild type mouse peritonitis model; type: functional, organism-based
Homo sapiens = species on record: Homo sapiens; test: Inhibition of sodium channel (unknown origin) at 10 uM at 4 Hz by patch clamp assay relative to control
[16] = Antagonist activity at CCR2 in human monocytes assessed as reduction of chemotaxis in presence of […]
Cynomolgus monkey [17] = test: Oral bioavailability in cynomolgus monkey at 14 mg/kg; type: ADME, organism-based, Macaca fascicularis; conditions: in vivo
Mus musculus [18] = test: Antiinflammatory activity in thioglycollate-induced human CCR2 knock-in mouse peritonitis model assessed as reduction of Ly6C+F4/80+ cell numbers in peripheral blood at 50 mg/kg, po administered 1 hr prior to thioglycollate challenge measured after 6 hrs; type: functional, organism-based; parameters: dose 50 mg/kg
Mus musculus [19] = test: Antiinflammatory activity in thioglycollate-induced human CCR2 knock-in mouse peritonitis model assessed as reduction of Ly6C+F4/80+ cell numbers in peritoneal cavity at 50 mg/kg, po administered 1 hr prior to thioglycollate challenge measured after 6 hrs; type: functional, organism-based; parameters: dose 50 mg/kg
Canis familiaris [20] = test: Oral bioavailability in dog at 14 mg/kg; type: ADME, organism-based, Canis lupus familiaris; conditions: in vivo
[21] = Clearance in mouse at 3 mg/kg, iv; type: ADME, organism-based; parameters: dose 3 mg/kg, route intravenous; conditions: in vivo
Mus musculus [22] = test: Oral bioavailability in mouse at 54 mg/kg; type: ADME, organism-based; conditions: in vivo
[23] = Clearance in rat at 6 mg/kg, iv; type: ADME, organism-based; parameters: dose 6 mg/kg, route intravenous; conditions: in vivo
Rattus norvegicus [24] = test: Oral bioavailability in rat at 72 mg/kg; type: ADME, organism-based; conditions: in vivo

Voltage-gated inwardly rectifying potassium channel KCNH2, sequence (Q12809 whole entry): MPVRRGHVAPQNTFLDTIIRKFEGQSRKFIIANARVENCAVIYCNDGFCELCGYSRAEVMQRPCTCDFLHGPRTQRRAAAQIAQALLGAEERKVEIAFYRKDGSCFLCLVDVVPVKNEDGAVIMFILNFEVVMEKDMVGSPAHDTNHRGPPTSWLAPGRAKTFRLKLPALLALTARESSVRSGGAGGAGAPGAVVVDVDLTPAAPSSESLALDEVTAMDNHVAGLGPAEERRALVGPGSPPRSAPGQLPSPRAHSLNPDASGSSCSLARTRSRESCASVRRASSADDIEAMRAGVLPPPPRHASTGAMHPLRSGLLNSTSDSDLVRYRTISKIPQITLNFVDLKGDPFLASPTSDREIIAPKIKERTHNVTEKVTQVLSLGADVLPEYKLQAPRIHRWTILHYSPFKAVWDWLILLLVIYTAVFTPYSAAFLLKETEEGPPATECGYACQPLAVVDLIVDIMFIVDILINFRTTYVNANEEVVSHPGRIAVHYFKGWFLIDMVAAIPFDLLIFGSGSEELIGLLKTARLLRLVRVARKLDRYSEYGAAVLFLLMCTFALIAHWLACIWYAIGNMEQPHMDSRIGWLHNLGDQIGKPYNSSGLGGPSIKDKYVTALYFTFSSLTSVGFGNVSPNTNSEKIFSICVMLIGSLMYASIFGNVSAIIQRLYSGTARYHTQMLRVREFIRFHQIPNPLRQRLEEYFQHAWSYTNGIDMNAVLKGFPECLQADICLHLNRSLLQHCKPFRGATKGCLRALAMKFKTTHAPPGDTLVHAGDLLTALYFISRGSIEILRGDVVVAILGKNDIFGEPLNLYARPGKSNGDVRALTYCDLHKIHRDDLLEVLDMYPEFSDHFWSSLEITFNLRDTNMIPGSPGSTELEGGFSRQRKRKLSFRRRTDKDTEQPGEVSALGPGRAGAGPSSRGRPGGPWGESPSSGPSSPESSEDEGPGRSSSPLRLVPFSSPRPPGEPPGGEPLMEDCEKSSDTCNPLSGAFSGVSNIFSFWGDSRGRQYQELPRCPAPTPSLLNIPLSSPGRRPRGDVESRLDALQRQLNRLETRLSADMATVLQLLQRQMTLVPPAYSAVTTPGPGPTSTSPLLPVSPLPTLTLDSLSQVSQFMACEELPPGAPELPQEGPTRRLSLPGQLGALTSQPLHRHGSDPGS
C-C chemokine receptor type 2, sequence (P41597 whole entry): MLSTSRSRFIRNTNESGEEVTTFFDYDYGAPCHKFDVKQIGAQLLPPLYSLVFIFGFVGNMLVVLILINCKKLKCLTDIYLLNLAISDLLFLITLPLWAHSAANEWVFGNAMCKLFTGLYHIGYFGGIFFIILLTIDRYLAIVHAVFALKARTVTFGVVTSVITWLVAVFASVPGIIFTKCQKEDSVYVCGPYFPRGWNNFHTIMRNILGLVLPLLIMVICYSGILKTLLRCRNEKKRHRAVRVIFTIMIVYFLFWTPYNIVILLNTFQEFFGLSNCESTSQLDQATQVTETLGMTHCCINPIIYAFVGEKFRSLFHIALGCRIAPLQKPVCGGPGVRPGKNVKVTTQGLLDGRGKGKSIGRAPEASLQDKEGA

## CC(C)N(C)[C@@H]1CC[C@H](N2CC[C@H](NC(=O)c3cccc(C(C)(C)C)n3)C2=O)[C@H](CS(C)(=O)=O)C1
Rattus norvegicus [1]
  inhibition: 46%
[2]
  IC50: 0.7 nM

## CC(C)N(C)[C@@H]1CC[C@H](N2CC[C@H](NC(=O)c3cc(F)cc(C(F)(F)F)c3)C2=O)[C@H](CS(=O)(=O)C(C)(C)C)C1
Rattus norvegicus [1]
  inhibition: 48%
[3]
  IC50: > 80000 nM
[2]
  IC50: 1.3 nM

## CC(C)N(C)[C@@H]1CC[C@H](N2CC[C@H](NC(=O)c3cccc(C(F)(F)F)c3)C2=O)[C@H](CS(=O)(=O)C(C)(C)C)C1
Rattus norvegicus [4]
  F: 14%
[5]
  clearance: 3.24 L/h/kg
[6]
  Papp A→B: 30 nm/s
Mus musculus [7]
  F: 13%
Rattus norvegicus [1]
  inhibition: 48%
Mus musculus [8]
  Activity: Active
Mus musculus [9]
  Activity: Active
Canis familiaris [10]
  F: 74%
Liver microsome
  Stability: 100%
Cynomolgus monkey [11]
  F: 26%
[12]
  clearance: 0.3 L/h/kg
[13]
  clearance: 0.72 L/h/kg
[14]
  clearance: 1.5 L/h/kg
Mus musculus [15]
  Activity: inactive
[2]
  IC50: 0.96 nM
Homo sapiens
  inhibition: 19%

## CC(C)N(C)[C@@H]1CC[C@H](N2CC[C@H](NC(=O)c3cccc(C(F)(F)F)c3)C2=O)[C@H](CS(=O)(=O)C(C)C)C1
[6]
  Papp A→B: < 15 nm/s
Liver microsome
  Stability: 100%
[2]
  IC50: 0.34 nM

## CC(C)N(C)[C@@H]1CC[C@H](N2CC[C@H](NC(=O)c3cccc(C(F)(F)F)c3)C2=O)[C@H](CS(=O)(=O)c2ccccc2)C1
[6]
  Papp A→B: < 15 nm/s
[16]
  IC50: 0.5 nM
Liver microsome
  Stability: 88%

## CC(C)N(C)[C@@H]1CC[C@H](N2CC[C@H](NC(=O)c3cccc(C(C)(C)C)c3)C2=O)[C@H](CS(=O)(=O)C(C)C)C1
[2]
  IC50: 0.5 nM

## CC(C)N(C)[C@@H]1CC[C@H](N2CC[C@H](NC(=O)c3cccc(OC(F)(F)F)c3)C2=O)[C@H](CS(=O)(=O)C(C)(C)C)C1
Rattus norvegicus [1]
  inhibition: 61%
[3]
  IC50: > 80000 nM
[2]
  IC50: 1.2 nM

## CC(C)N(C)[C@@H]1CC[C@H](N2CC[C@H](NC(=O)c3cccc(C(F)(F)F)c3)C2=O)[C@H](CS(C)(=O)=O)C1
Cynomolgus monkey [17]
  F: 9%
Mus musculus [18]
  Activity: Active
[6]
  Papp A→B: < 15 nm/s
Mus musculus [19]
  Activity: Active
Canis familiaris [20]
  F: 51%
Rattus norvegicus [1]
  inhibition: 3%
[21]
  clearance: 4.2 L/h/kg
Liver microsome
  Stability: 100%
[12]
  clearance: 0.18 L/h/kg
Mus musculus [22]
  F: 16%
[13]
  clearance: 0.84 L/h/kg
[23]
  clearance: 2.52 L/h/kg
Rattus norvegicus [24]
  F: 1%
[2]
  IC50: 1.8 nM
Homo sapiens
  inhibition: 22%

## CC(C)N(C)[C@@H]1CC[C@H](N2CC[C@H](NC(=O)c3cccc(OC(F)(F)F)c3)C2=O)[C@H](CS(C)(=O)=O)C1
Rattus norvegicus [1]
  inhibition: 32%
[2]
  IC50: 5 nM

## CC(C)N(C)[C@@H]1CC[C@H](N2CC[C@H](NC(=O)c3cccc(C(F)(F)F)n3)C2=O)[C@H](CS(C)(=O)=O)C1
Rattus norvegicus [1]
  inhibition: 0%
[3]
  IC50: > 80000 nM
[2]
  IC50: 2.2 nM

## CC(C)N(C)[C@@H]1CC[C@H](N2CC[C@H](NC(=O)c3cccc(C(C)(C)C)c3)C2=O)[C@H](CS(C)(=O)=O)C1
[2]
  IC50: 1.2 nM

## Cc1ccc(C(=O)N[C@H]2CCN([C@H]3CC[C@@H](N(C)C(C)C)C[C@H]3CS(C)(=O)=O)C2=O)cc1C(F)(F)F
Rattus norvegicus [1]
  inhibition: 36%
[2]
  IC50: 5.2 nM

## CCS(=O)(=O)C[C@@H]1C[C@H](N(C)C(C)C)CC[C@@H]1N1CC[C@H](NC(=O)c2cccc(C(F)(F)F)c2)C1=O
[6]
  Papp A→B: < 15 nm/s
Rattus norvegicus [1]
  inhibition: 26%
Liver microsome
  Stability: 100%
[2]
  IC50: 1.2 nM
Homo sapiens
  inhibition: 4.2%

## CCS(=O)(=O)C[C@@H]1C[C@H](N(C)C(C)C)CC[C@@H]1N1CC[C@H](NC(=O)c2cccc(-c3ccccc3)c2)C1=O
[3]
  IC50: 60000 nM
[2]
  IC50: 1.1 nM

From ChEMBL document CHEMBL3232853, “Alkylsulfone-containing trisubstituted cyclohexanes as potent and bioavailable chemokine receptor 2 (CCR2) antagonists” (Bioorg Med Chem Lett, 2014)
